A short description of series [1]: Chemical stability in pH 5.7 buffer at room temperature after 1 week. In kind it is physicochemical. The conditions noted are these: read-out: Stability.
The nature of series [2]: Chemical stability in pH 5.7 buffer at room temperature after 1 day. In kind it is physicochemical. The conditions noted are these: for remaining at 24 h: pH 5.7 buffer, pH 5.7, read-out: Stability.
The nature of series [3]: Chemical stability in pH 5.7 buffer at room temperature after 4 weeks. In kind it is physicochemical. The conditions noted are these: read-out: Stability.
Series [4] is described as follows: Stability in rabbit corneal homogenate at 37 degC assessed as half life of timolol release. The class given is ADME, tissue-based, Oryctolagus cuniculus, Cornea. The conditions noted are these: in vitro.
The nature of series [5]: Chemical stability in pH 5.7 buffer at room temperature after 12 weeks. The class given is physicochemical. The conditions noted are these: read-out: Stability.
Series [6] in a line: Chemical stability in pH 5.7 buffer at room temperature after 8 weeks. In kind it is physicochemical. The conditions noted are these: read-out: Stability.
A short description of series [7]: Vasodilation activity in rabbit aortic rings assessed as relaxation of 3 uM methoxamine-induced contraction in presence of 10 uM guanylate cyclase inhibitor 1H-[1,2,4]oxadiazolo[4,3-a]quinoxalin-1-one. The class given is functional, tissue-based. The conditions noted are these: Oryctolagus cuniculus, Aorta.
Series [8] in a line: Vasodilation activity in rabbit aortic rings assessed as relaxation of 3 uM methoxamine-induced contraction in absence of guanylate cyclase inhibitor 1H-[1,2,4]oxadiazolo[4,3-a]quinoxalin-1-one. The class given is functional, tissue-based. The conditions noted are these: Oryctolagus cuniculus, Aorta.

As for `CC(C)(C)NC[C@@H](COc1nsnc1N1CCOCC1)OC(=O)c1ccccc1`, the remaining at 168 h in series [1] worked out at 74.8%. Further, the remaining at 24 h in series [2] amounted to 96%.
Take `COc1cc(COC(=O)CCCO[N+](=O)[O-])c(C(=O)O[C@@H](CNC(C)(C)C)COc2nsnc2N2CCOCC2)c(OC)c1.O=C(O)/C=C\C(=O)O`: the remaining at 672 h in series [3] was determined as 90.6%. Further, the remaining at 168 h in series [1] is 96.5%. In addition, the t1/2 in series [4] was determined as 0.2 h. Moreover, the remaining at 24 h in series [2] was 96.5%.
Regarding `COc1cc(OCCO[N+](=O)[O-])ccc1C(=O)O[C@@H](CNC(C)(C)C)COc1nsnc1N1CCOCC1`, the remaining at 672 h in series [3] is 84.4%. In series [1], the remaining at 168 h is 96.3%. The remaining at 24 h in series [2] came out at 98.6%.
Consider `COc1cc(COCCO[N+](=O)[O-])ccc1C(=O)O[C@@H](CNC(C)(C)C)COc1nsnc1N1CCOCC1`, for which, in series [1], the remaining at 168 h stood at 94.9%. Further, the remaining at 24 h in series [2] worked out at 96.7%.
As to `COc1ccc(CO[N+](=O)[O-])cc1C(=O)O[C@@H](CNC(C)(C)C)COc1nsnc1N1CCOCC1.O=C(O)/C=C\C(=O)O`, the t1/2 in series [4] turned out to be 4.62 h. For the same molecule, the Stability result in series [2] (buffer, pH 5.7, 24 h) was “Unstable”.
As for `COc1cccc(OCCO[N+](=O)[O-])c1C(=O)O[C@@H](CNC(C)(C)C)COc1nsnc1N1CCOCC1.O=C(O)/C=C\C(=O)O`, in series [3], the remaining at 672 h amounted to 98.3%. In addition, in series [1], the remaining at 168 h stood at 99.3%. Besides, the remaining at 2016 h in series [5] amounted to 98.3%. For the same molecule, the t1/2 in series [4] is greater than 23.33 h. Moreover, the remaining at 24 h in series [2] was determined as 99.8%. For the same molecule, the remaining at 1344 h in series [6] came to 98.3%.
On to `CC(C)(C)NC[C@H](O)COc1nsnc1N1CCOCC1` [TIMOLOL], for which the EC50 (usually the concentration at which the effect is half-maximal) in series [7] came out at 36.5 µM; in series [8] it was 28.8 µM.
As for `COc1cc(COC(=O)CCOCC(CO[N+](=O)[O-])O[N+](=O)[O-])c(C(=O)O[C@@H](CNC(C)(C)C)COc2nsnc2N2CCOCC2)c(OC)c1.O=C(O)/C=C\C(=O)O` (some centres not stated), the remaining at 672 h in series [3] is 95.8%. In addition, the remaining at 168 h in series [1] was 96.7%. Also, in series [5], the remaining at 2016 h is 86%. For the same molecule, in series [4], the t1/2 worked out at 0.667 h. In addition, the remaining at 24 h in series [2] is 97.3%. Further, the remaining at 1344 h in series [6] came to 91.7%.
With `COc1cc(COC(=O)CCCCCO[N+](=O)[O-])c(C(=O)O[C@@H](CNC(C)(C)C)COc2nsnc2N2CCOCC2)c(OC)c1.O=C(O)/C=C\C(=O)O`, the remaining at 672 h in series [3] was found to be 97.7%. The EC50 was 56.3 µM in series [7] and 6.7 µM in series [8]. Also, the remaining at 168 h in series [1] amounted to 99.6%. Further, the t1/2 in series [4] amounted to 0.167 h. For the same molecule, in series [2], the remaining at 24 h was 99.6%. Further, in series [6], the remaining at 1344 h turned out to be 92.8%.
For the molecule `O=[N+]([O-])O[C@@H]1CO[C@H]2[C@@H]1OC[C@@H]2O` [ISOSORBIDE MONONITRATE], the EC50 was greater than 100 µM in series [7] and 9.6 µM in series [8].
Consider `CC(C)(C)NC[C@@H](COc1nsnc1N1CCOCC1)OC(=O)c1ccc(OCCO[N+](=O)[O-])cc1OCCO[N+](=O)[O-]`, for which the remaining at 168 h in series [1] was determined as 84.2%. For the same molecule, the remaining at 24 h in series [2] is 97.9%.
Consider `COc1cc(COC(=O)C(C)(C)CO[N+](=O)[O-])c(C(=O)O[C@@H](CNC(C)(C)C)COc2nsnc2N2CCOCC2)c(OC)c1.O=C(O)/C=C\C(=O)O`, for which the remaining at 672 h in series [3] was 94.7%. The remaining at 168 h in series [1] was 99.1%. Further, the remaining at 2016 h in series [5] amounted to 93.2%. Moreover, in series [4], the t1/2 worked out at 2 h. In addition, in series [2], the remaining at 24 h was determined as 98.4%. For the same molecule, in series [6], the remaining at 1344 h was 94.9%.
In the case of `COc1cccc(C(=O)O[C@@H](CNC(C)(C)C)COc2nsnc2N2CCOCC2)c1OCCO[N+](=O)[O-].O=C(O)/C=C\C(=O)O`, in series [1], the remaining at 168 h was determined as 72.1%. For the same molecule, the t1/2 in series [4] was greater than 23.33 h. In series [2], the remaining at 24 h was found to be 96%.
Regarding `COc1cc(COC(=O)COCCOCCO[N+](=O)[O-])c(C(=O)O[C@@H](CNC(C)(C)C)COc2nsnc2N2CCOCC2)c(OC)c1.O=C(O)/C=C\C(=O)O`, the EC50 in series [7] stood at 32.7 µM; in series [8], 15.5 µM. In series [1], the remaining at 168 h worked out at 93%. Further, in series [4], the t1/2 turned out to be 0.167 h. The remaining at 24 h in series [2] was 98.8%.
Consider `COc1cc(COC(=O)CCCCCO[N+](=O)[O-])cc(OC)c1C(=O)O[C@@H](CNC(C)(C)C)COc1nsnc1N1CCOCC1.O=C(O)/C=C\C(=O)O`, for which, in series [3], the remaining at 672 h was 98%. Also, the remaining at 168 h in series [1] came out at 100%. Further, the remaining at 2016 h in series [5] was determined as 93.2%. The t1/2 in series [4] is greater than 23.33 h. Moreover, the remaining at 24 h in series [2] was 100%. In addition, the remaining at 1344 h in series [6] was 96.8%.
Consider `COc1cc(OCCO[N+](=O)[O-])cc(C)c1C(=O)O[C@@H](CNC(C)(C)C)COc1nsnc1N1CCOCC1.O=C(O)/C=C\C(=O)O`, for which, in series [3], the remaining at 672 h is 100%. Also, the remaining at 168 h in series [1] amounted to 101%. The remaining at 2016 h in series [5] came to 98.5%. The t1/2 in series [4] is greater than 23.33 h. Also, in series [2], the remaining at 24 h was 101%. Besides, the remaining at 1344 h in series [6] is 99.6%.
Turning to `CC(C)(C)NC[C@@H](COc1nsnc1N1CCOCC1)OC(=O)c1ccccc1OCCO[N+](=O)[O-].O=C(O)/C=C\C(=O)O`, the remaining at 168 h in series [1] came to 82.5%. The t1/2 in series [4] amounted to 4.3 h. Besides, the remaining at 24 h in series [2] worked out at 96.5%.

(Values after ChEMBL document CHEMBL1151861, “Synthesis of novel nitric oxide (NO)-releasing esters of timolol” (Bioorg Med Chem Lett, 2009).)
